Where two headings read alike, the source gives them in different places. Starred links: 1 amine or outer side, 2 acyl side, 3 side chain; linkers in the order of their positions; H or OH if unused. Non-standard residues stand in square brackets, D forms with d. Residues, ends and D or L forms follow the SMILES beside them. X2 = O=C([C@@H]1CC[C@H](CN[*:1])O1)[*:2]; X1 = O=C(C1CCC(CN[*:1])O1)[*:2]
Columns and labels:
[1] = system: PTC (colon); assay: MTT cytotoxicity assay, PTC cells; assay type: cell-based, human; conditions: 48 hours
Description: (§1) The following cell lines were used.

[2] = system: HeP-2 (larynx); assay: MTT cytotoxicity assay, HeP-2 cells; assay type: cell-based, human; conditions: 48 hours
Description: as §1

[3] = system: MiaPaCa.2 (human pancreas); assay: MTT cytotoxicity assay, MiaPaCa.2 cells; assay type: cell-based; conditions: 48 hours
Description: as §1

[4] = system: KB (oral); assay: MTT cytotoxicity assay, KB cells; assay type: cell-based, human; conditions: 48 hours
Description: as §1

[5] = system: ECV-304 (endothelial); conditions: ECV-304 cells, 48 hours, NA = Not Active
Description: Although sterile phosphate buffered saline was used to prepare each stock solution for the testing described in the following example, other diluents may be used such as buffered saline, isotonic NaCl, Ringer's solution, water, distilled water, polyethylene glycol (neat or in water), Tween in water, dimethylsulfoxide up to 50% in water, propylene glycol (neat or in water), phosphate buffered saline, balanced salt solution, glycerol, and other conventional fluids that are suitable for parentral administration. To obtain a pH in the range of approximately 3.5 to 7.0, for each stock solution, the pH can be adjusted by using 1N HCl for lowering the pH or 1N NaOH for raising the pH, although other buffers such as citrate buffer, phosphate buffer and the like or other conventional agents for adjusting the pH can be used.
The MTT assay is based on the principle of uptake of MTT [3-[4,5-dimethylthiazol-2-yl]-2,5-diphenyl tetrazolium bromide], a tetrazolium salt, by the metabolically active cells where it is metabolized by active mitochondria into a blue colored formazan product which can be read spectrophotometrically. […] The formazan crystals formed inside the cells were dissolved with a detergent comprising of 10% Sodium dodecyl sulfate and 0.01 N HCl and optical density read on a multi-scan ELISA reader. The optical density was directly proportional to the number of proliferating and metabolically active cells. The following cell lines were used. PA1(human ovary), PTC (colon), HeP-2 (larynx), MiaPaCa.2 (human pancreas), KB (oral), ECV-304 (endothelial) and HeP-G2 (liver).

[6] = system: HeP-G2 (liver); assay: MTT cytotoxicity assay, HeP-G2 cells; assay type: cell-based, human; conditions: 48 hours
Description: as §1

[7] = system: PA1 (human ovary); assay: MTT cytotoxicity assay, PA1 cells; assay type: cell-based; conditions: human, 48 hours
Description: as §1

[8] = system: human colon adenocarcinoma (PTC) xenografts; assay: In vivo antitumour activity on primary tumor (colon) xenografted mice; set-up: species or system Balb/c athymic mice; conditions: PTC xenografts in nude mice; intravenously 0.5 mg/Kg. B. Wt twice a day; till day 21
Procedure: The antitumor activity of the peptide (SEQ ID NO: 12) was studied in human colon adenocarcinoma (PTC) xenografts in nude mice. PTC tumor xenografts were grown in Balb/c athymic mice by subcutaneous inoculation of a single cell suspension of PTC cells (15×10^6 cells/100 μL). The tumor bearing animals were divided into 2 groups of five animals each including one group comprising untreated control animals. Treatment with novel peptide was initiated when the average tumor volumes, as measured using a vernier caliper, were between 400–800 mm^3. Solution of SEQ ID NO 12 was prepared at a concentration of 100 μg/ml and intravenously administered to the assigned group of tumor bearing animals at a dose of 0.5 mg/Kg. B. Wt twice a day so that the total dose of 1 mg/Kg. B. Wt was administered to each animal. The treatment was continued for a period of 21 days.
The antitumor activity of the compounds was monitored by measuring tumor volumes every fourth day using the formula W*W*L*0.4 (W=smaller diameter, L=larger diameter). The percentage inhibition of tumor growth was calculated using the formula (1-tumor volume-treated/tumor volume-control)* 100.

Q: For `CSCC[C@H](NC(=O)[C@@H](N)CC(C)C)C(=O)NC[C@H]1CC[C@@H](C(=O)N[C@H](C(=O)N[C@@H](Cc2ccc(O)cc2)C(=O)N[C@@H](CC(C)C)C(=O)N[C@@H](CCCCN)C(=O)O)[C@@H](C)O)O1` [SEQ ID NO: 9, Leu-Met-Saa4-Thr-Tyr-Leu-Lys] (H-LM[X2]TYLK-OH), which “Percent Cytotoxicity” value ([1]; PTC cells, peptide 1 nM, NA = Not Active) is on record?
A: 33.5 ± 2.9%

Q: And the “Percent Cytotoxicity” value ([1]; PTC cells, peptide 10 nM, NA = Not Active)?
A: 31.9 ± 2.8%

Q: And the “Percent Cytotoxicity” value ([1]; PTC cells, peptide 100 nM, NA = Not Active)?
A: 29.5 ± 2.7%

Q: And the “Percent Cytotoxicity” value ([1]; PTC cells, peptide 1 μM, NA = Not Active)?
A: 26.0 ± 2.2%

Q: And the “Percent Cytotoxicity” value ([2]; HeP-2 cells, peptide 1 nM, NA = Not Active)?
A: 20.9 ± 2.0%

Q: And the “Percent Cytotoxicity” value ([2]; HeP-2 cells, peptide 10 nM, NA = Not Active)?
A: 21.0 ± 1.9%

Q: What about the “Percent Cytotoxicity” value ([2]; HeP-2 cells, peptide 100 nM, NA = Not Active) of the same molecule?
A: 18.8 ± 1.9%

Q: And the “Percent Cytotoxicity” value ([2]; HeP-2 cells, peptide 1 μM, NA = Not Active)?
A: 14.6 ± 1.6%

Q: What about the “Percent Cytotoxicity” value ([3]; MiaPaCa.2 cells, peptide 1 nM, NA = Not Active) of the same molecule?
A: 14.8 ± 2.9%

Q: What about the “Percent Cytotoxicity” value ([3]; MiaPaCa.2 cells, peptide 10 nM, NA = Not Active) of the same molecule?
A: 12.9 ± 1.5%

Q: What about the “Percent Cytotoxicity” value ([3]; MiaPaCa.2 cells, peptide 100 nM, NA = Not Active) of the same molecule?
A: 9.3 ± 1.1%

Q: What about the “Percent Cytotoxicity” value ([3]; MiaPaCa.2 cells, peptide 1 μM, NA = Not Active) of the same molecule?
A: 5.9 ± 0.0%

Q: And the “Percent Cytotoxicity” value ([4]; KB cells, peptide 1 nM, NA = Not Active)?
A: 14.5 ± 1.8%

Q: What about the “Percent Cytotoxicity” value ([4]; KB cells, peptide 10 nM, NA = Not Active) of the same molecule?
A: 12.5 ± 1.9%

Q: What about the “Percent Cytotoxicity” value ([4]; KB cells, peptide 100 nM, NA = Not Active) of the same molecule?
A: 10.5 ± 1.2%

Q: And the “Percent Cytotoxicity” value ([5]; peptide 1 nM)?
A: 12.8 ± 1.4%

Q: And the “Percent Cytotoxicity” value ([5]; peptide 10 nM)?
A: 15.8 ± 1.1%

Q: And the “Percent Cytotoxicity” value ([5]; peptide 100 nM)?
A: 10.4 ± 2.0%

Q: What about the “Percent Cytotoxicity” value ([5]; peptide 1 μM) of the same molecule?
A: 7.9 ± 0.4%

Q: What about the “Percent Cytotoxicity” value ([6]; HeP-G2 cells, peptide 1 nM, NA = Not Active) of the same molecule?
A: 11.2 ± 1.1%

Q: And the “Percent Cytotoxicity” value ([6]; HeP-G2 cells, peptide 10 nM, NA = Not Active)?
A: 10.7 ± 1.1%

Q: Which results are given for `CSCC[C@H](NC(=O)[C@@H](N)CC(C)C)C(=O)N[C@@H](Cc1ccc(O)cc1)C(=O)NCC1CCC(C(=O)N[C@@H](Cc2ccc(O)cc2)C(=O)N[C@@H](CC(C)C)C(=O)N[C@@H](CCCCN)C(=O)O)O1` (stereo partly drawn) [SEQ ID NO: 12, Leu-Met-Tyr-Saa3-Tyr-Leu-Lys] (H-LMY[X1]YLK-OH)?
A: Percent Cytotoxicity ([7]; 1 nM): 20.2 ± 2.1%; Percent Cytotoxicity ([7]; 10 nM): 24.6 ± 2.7%; Percent Cytotoxicity ([7]; 100 nM): 39.3 ± 3.0%; Percent Cytotoxicity ([7]; 1 μM): 32.1 ± 2.0%; Percent Cytotoxicity ([1]; human, 1 nM): 12.7 ± 1.8%; Percent Cytotoxicity ([1]; human, 10 nM): 14.8 ± 1.9%; Percent Cytotoxicity ([1]; human, 100 nM): 10.8 ± 2.0%; Percent Cytotoxicity ([2]; human, 1 nM): 21.9 ± 2.9%; Percent Cytotoxicity ([2]; human, 10 nM): 39.3 ± 3.2%; Percent Cytotoxicity ([2]; human, 100 nM): 32.2 ± 1.9%; Percent Cytotoxicity ([2]; human, 1 μM): 28.9 ± 3.2%; Percent Cytotoxicity ([3]; human, 1 nM): 23.8 ± 3.2%; Percent Cytotoxicity ([3]; human, 10 nM): 30.6 ± 3.9%; Percent Cytotoxicity ([3]; human, 100 nM): 21.9 ± 0.2%; Percent Cytotoxicity ([3]; human, 1 μM): 13.9 ± 2.7%; Percent Cytotoxicity ([4]; human, 1 nM): 32.9 ± 4.3%; Percent Cytotoxicity ([4]; human, 10 nM): 37.4 ± 2.9%; Percent Cytotoxicity ([4]; human, 100 nM): 33.2 ± 0.4%; Percent Cytotoxicity ([4]; human, 1 μM): 19.9 ± 1.9%; Percent Cytotoxicity ([5]; peptide 1 nM): 32.0 ± 3.9%; Percent Cytotoxicity ([5]; peptide 10 nM): 36.9 ± 3.2%; Percent Cytotoxicity ([5]; peptide 100 nM): 27.9 ± 2.9%; Percent Cytotoxicity ([5]; peptide 1 μM): 22.2 ± 2.2%; antitumor activity on PTC xenografts (tumor volume kinetics, FIG. 1) [8]: significant antitumor activity

Q: `CSCC[C@H](N)C(=O)NCC1CCC(C(=O)N[C@@H](Cc2ccc(O)cc2)C(=O)N[C@@H](CC(C)C)C(=O)O)O1` (stereo partly shown) [SEQ ID NO: 16, Met-Saa3-Tyr-Leu] was tested. Which “Percent Cytotoxicity” value ([7]; 1 nM) did it give?
A: 24.0 ± 2.1%

Q: And the “Percent Cytotoxicity” value ([7]; 10 nM)?
A: 22.9 ± 2.1%

Q: And the “Percent Cytotoxicity” value ([7]; 100 nM)?
A: 19.0 ± 1.0%

Q: What about the “Percent Cytotoxicity” value ([7]; 1 μM) of the same molecule?
A: 16.8 ± 1.8%

Q: And the “Percent Cytotoxicity” value ([2]; human, 1 nM)?
A: 16.5 ± 1.6%

Q: And the “Percent Cytotoxicity” value ([2]; human, 10 nM)?
A: 19.2 ± 1.6%

Q: And the “Percent Cytotoxicity” value ([2]; human, 100 nM)?
A: 12.6 ± 0.5%

Q: And the “Percent Cytotoxicity” value ([2]; human, 1 μM)?
A: 10.9 ± 1.1%

Q: And the “Percent Cytotoxicity” value ([4]; human, 1 nM)?
A: 9.3 ± 0.3%

Q: What about the “Percent Cytotoxicity” value ([4]; human, 10 nM) of the same molecule?
A: 9.7 ± 0.4%

Q: And the “Percent Cytotoxicity” value ([4]; human, 100 nM)?
A: 3.2 ± 0.1%

Q: What about the “Percent Cytotoxicity” value ([5]; peptide 1 nM) of the same molecule?
A: 9.3 ± 0.6%

Q: What about the “Percent Cytotoxicity” value ([5]; peptide 10 nM) of the same molecule?
A: 7.9 ± 0.1%

Q: What about the “Percent Cytotoxicity” value ([6]; human, 1 nM) of the same molecule?
A: 11.0 ± 1.1%

Q: And the “Percent Cytotoxicity” value ([6]; human, 10 nM)?
A: 12.8 ± 0.7%

Q: What about the “Percent Cytotoxicity” value ([6]; human, 100 nM) of the same molecule?
A: 11.4 ± 0.7%

Q: And the “Percent Cytotoxicity” value ([6]; human, 1 μM)?
A: 9.8 ± 0.7%

Q: Which results are given for `CSCC[C@H](N)C(=O)NC[C@H]1CC[C@@H](C(=O)N[C@@H](Cc2ccc(O)cc2)C(=O)N[C@@H](CC(C)C)C(=O)O)O1` [SEQ ID NO: 17, Met-Saa4-Tyr-Leu]?
A: Percent Cytotoxicity ([7]; 1 nM): 18.2 ± 1.1%; Percent Cytotoxicity ([7]; 10 nM): 17.8 ± 1.7%; Percent Cytotoxicity ([7]; 100 nM): 15.9 ± 0.6%; Percent Cytotoxicity ([7]; 1 μM): 6.0 ± 0.7%; Percent Cytotoxicity ([1]; human, 1 nM): 12.0 ± 1.7%; Percent Cytotoxicity ([1]; human, 10 nM): 11.9 ± 1.4%; Percent Cytotoxicity ([1]; human, 100 nM): 10.4 ± 0.6%; Percent Cytotoxicity ([1]; human, 1 μM): 8.4 ± 1.0%; Percent Cytotoxicity ([2]; human, 1 nM): 33.6 ± 2.7%; Percent Cytotoxicity ([2]; human, 10 nM): 31.7 ± 3.2%; Percent Cytotoxicity ([2]; human, 100 nM): 29.0 ± 0.4%; Percent Cytotoxicity ([2]; human, 1 μM): 27.9 ± 2.9%; Percent Cytotoxicity ([3]; human, 1 nM): 23.0 ± 2.1%; Percent Cytotoxicity ([3]; human, 10 nM): 21.8 ± 1.9%; Percent Cytotoxicity ([3]; human, 100 nM): 17.0 ± 0.9%; Percent Cytotoxicity ([3]; human, 1 μM): 16.0 ± 1.4%; Percent Cytotoxicity ([5]; peptide 1 nM): 16.4 ± 1.9%; Percent Cytotoxicity ([5]; peptide 10 nM): 13.9 ± 0.5%; Percent Cytotoxicity ([5]; peptide 100 nM): 11.9 ± 1.1%; Percent Cytotoxicity ([6]; human, 1 nM): 12.8 ± 0.6%; Percent Cytotoxicity ([6]; human, 10 nM): 17.9 ± 1.4%; Percent Cytotoxicity ([6]; human, 100 nM): 20.9 ± 1.4%; Percent Cytotoxicity ([6]; human, 1 μM): 12.0 ± 0.7%

Source: patent US7060678B2, “Peptides comprising furanoid sugar amino acids for the treatment of cancer” (Dabur Research Foundation, priority 2003, dated 2006)
